Test system: Adjuvant Arthritis in rats
Assay: Preventive effect on adjuvant induced adjuvant arthritis in rats
Type: in vivo, Rat, SD strain
Method: Freund's Adjuvant Complete, purchased from Sigma Company, was injected into the plantar surface of the right hind paw by 0.1 ml in order to induce inflammation in rats.
Animals were firstly divided into large dose group: 10 mg/kg, iv, medium dose group: 5 mg/kg, iv, small dose group: 2.5 mg/kg, iv, Indomethacin group: 1 mg/kg, po, Tripterygium Wilfordii Hook group: 1.5 mg/kg, po and blank control group: physiological saline 10 mg/kg, iv. The volume of the right hind paw of the rats was measured by using hydroplethismometer before inflammation induced. Then 0.1 ml Freund's Adjuvant Complete was injected into the plantar surface of the right hind paw in order to induce inflammation in rats. The rats were grouped by the foregoing division way in the succeeding day, and to be administered for 15 days. The volume of paw was measured in regular intervals. Swell rate and inhibition rate were calculated by the same method as the foregoing. Differences among groups were compared by t test.

Q: With `CC(C)=CCC[C@](C)(O[C@@H]1O[C@H](CO)[C@@H](O)[C@H](O)[C@H]1O)[C@H]1CC[C@]2(C)[C@@H]1[C@H](O)C[C@@H]1[C@@]3(C)CC[C@H](O)C(C)(C)[C@@H]3CC[C@]12C` [Ginsenoside Compound-K, ginsenoside Compound-K] as the molecule, how does the swell value (2.5 mg/kg iv, 0 day) read?
A: 1.24 ± 0.08 mL

Q: What about the inhibition rate (2.5 mg/kg iv, 2 day) of the same molecule?
A: <21.71> %

Q: And the swell rate (2.5 mg/kg iv, 2 day)?
A: (56.65 ± 17.83) %

Q: What about the swell value (2.5 mg/kg iv, 2 day) of the same molecule?
A: 2.14 ± 0.15 mL

Q: What about the inhibition rate (2.5 mg/kg iv, 4 day) of the same molecule?
A: <18.33> %

Q: And the swell rate (2.5 mg/kg iv, 4 day)?
A: (73.11 ± 15.82) %

Q: What about the swell value (2.5 mg/kg iv, 4 day) of the same molecule?
A: 2.14 ± 0.15 mL

Q: And the inhibition rate (2.5 mg/kg iv, 6 day)?
A: <20.67> %

Q: What about the swell rate (2.5 mg/kg iv, 6 day) of the same molecule?
A: (70.87 ± 14.91) %

Q: What about the swell value (2.5 mg/kg iv, 6 day) of the same molecule?
A: 2.11 ± 0.10 mL

Q: And the inhibition rate (2.5 mg/kg iv, 9 day)?
A: <20.95> %

Q: What about the swell rate (2.5 mg/kg iv, 9 day) of the same molecule?
A: (57.25 ± 14.42) %

Q: What about the swell value (2.5 mg/kg iv, 9 day) of the same molecule?
A: 1.95 ± 0.17 mL

Q: What about the inhibition rate (2.5 mg/kg iv, 11 day) of the same molecule?
A: <20.82> %

Q: What about the swell rate (2.5 mg/kg iv, 11 day) of the same molecule?
A: (61.69 ± 21.61) %

Q: What about the swell value (2.5 mg/kg iv, 11 day) of the same molecule?
A: 2.00 ± 0.26 mL

Q: What about the inhibition rate (2.5 mg/kg iv, 13 day) of the same molecule?
A: <25.97> %

Q: And the swell rate (2.5 mg/kg iv, 13 day)?
A: (61.24 ± 13.26) %

Q: What about the swell value (2.5 mg/kg iv, 13 day) of the same molecule?
A: 2.00 ± 0.15 mL

Q: What about the inhibition rate (2.5 mg/kg iv, 15 day) of the same molecule?
A: <28.05> %

Q: What about the swell rate (2.5 mg/kg iv, 15 day) of the same molecule?
A: (58.02 ± 15.92) %

Q: What about the swell value (2.5 mg/kg iv, 15 day) of the same molecule?
A: 1.96 ± 0.20 mL

Q: What about the swell value (5 mg/kg iv, 0 day) of the same molecule?
A: 1.25 ± 0.06 mL

Q: What about the inhibition rate (5 mg/kg iv, 2 day) of the same molecule?
A: <35.56> %

Q: What about the swell rate (5 mg/kg iv, 2 day) of the same molecule?
A: (46.63 ± 11.66) %

Q: And the swell value (5 mg/kg iv, 2 day)?
A: 2.10 ± 0.21 mL

Q: What about the inhibition rate (5 mg/kg iv, 4 day) of the same molecule?
A: <23.65> %

Q: And the swell rate (5 mg/kg iv, 4 day)?
A: (68.35 ± 15.68) %

Q: What about the swell value (5 mg/kg iv, 4 day) of the same molecule?
A: 2.10 ± 0.21 mL

Q: And the inhibition rate (5 mg/kg iv, 6 day)?
A: <17.94> %

Q: What about the swell rate (5 mg/kg iv, 6 day) of the same molecule?
A: (73.31 ± 17.73) %

Q: What about the swell value (5 mg/kg iv, 6 day) of the same molecule?
A: 2.16 ± 0.18 mL

Q: What about the inhibition rate (5 mg/kg iv, 9 day) of the same molecule?
A: <20.45> %

Q: And the swell rate (5 mg/kg iv, 9 day)?
A: (57.60 ± 13.83) %

Q: And the swell value (5 mg/kg iv, 9 day)?
A: 1.97 ± 0.21 mL

Q: What about the inhibition rate (5 mg/kg iv, 11 day) of the same molecule?
A: <28.37> %

Q: What about the swell rate (5 mg/kg iv, 11 day) of the same molecule?
A: (55.81 ± 11.54) %

Q: What about the swell value (5 mg/kg iv, 11 day) of the same molecule?
A: 1.95 ± 0.18 mL

Q: And the inhibition rate (5 mg/kg iv, 13 day)?
A: <27.79> %

Q: What about the swell rate (5 mg/kg iv, 13 day) of the same molecule?
A: (59.74 ± 11.82) %

Q: And the swell value (5 mg/kg iv, 13 day)?
A: 2.00 ± 0.18 mL

Q: What about the inhibition rate (5 mg/kg iv, 15 day) of the same molecule?
A: <29.21> %

Q: And the swell rate (5 mg/kg iv, 15 day)?
A: (57.08 ± 14.00) %

Q: What about the swell value (5 mg/kg iv, 15 day) of the same molecule?
A: 1.96 ± 0.21 mL

Q: And the swell value (10 mg/kg iv, 0 day)?
A: 1.29 ± 0.08 mL

Q: And the inhibition rate (10 mg/kg iv, 2 day)?
A: <29.48> %

Q: And the swell rate (10 mg/kg iv, 2 day)?
A: (51.03 ± 8.03) %

Q: And the swell value (10 mg/kg iv, 2 day)?
A: 2.17 ± 0.14 mL

Q: And the inhibition rate (10 mg/kg iv, 4 day)?
A: <22.99> %

Q: What about the swell rate (10 mg/kg iv, 4 day) of the same molecule?
A: (68.94 ± 10.49) %

Q: And the swell value (10 mg/kg iv, 4 day)?
A: 2.17 ± 0.14 mL

Q: What about the inhibition rate (10 mg/kg iv, 6 day) of the same molecule?
A: <19.52> %

Q: And the swell rate (10 mg/kg iv, 6 day)?
A: (71.90 ± 9.64%

Q: What about the swell value (10 mg/kg iv, 6 day) of the same molecule?
A: 2.21 ± 0.15 mL

Q: What about the inhibition rate (10 mg/kg iv, 9 day) of the same molecule?
A: <19.59> %

Q: And the swell rate (10 mg/kg iv, 9 day)?
A: (58.23 ± 11.44) %

Q: And the swell value (10 mg/kg iv, 9 day)?
A: 2.03 ± 0.15 mL

Q: What about the inhibition rate (10 mg/kg iv, 11 day) of the same molecule?
A: <30.08> %

Q: What about the swell rate (10 mg/kg iv, 11 day) of the same molecule?
A: (54.48 ± 12.39) %

Q: And the swell value (10 mg/kg iv, 11 day)?
A: 1.98 ± 0.14 mL

Q: What about the inhibition rate (10 mg/kg iv, 13 day) of the same molecule?
A: <29.83> %

Q: What about the swell rate (10 mg/kg iv, 13 day) of the same molecule?
A: (58.04 ± 10.97) %

Q: And the swell value (10 mg/kg iv, 13 day)?
A: 2.03 ± 0.13 mL

Q: What about the inhibition rate (10 mg/kg iv, 15 day) of the same molecule?
A: <31.26> %

Q: And the swell rate (10 mg/kg iv, 15 day)?
A: (55.42 ± 14.65) %

Q: What about the swell value (10 mg/kg iv, 15 day) of the same molecule?
A: 1.99 ± 0.18 mL

Q: And the “overall preventive effect on Adjuvant Arthritis” value (rats, 10, 5, 2.5 mg/kg iv for 15 days)?
A: able to prevent Adjuvant Arthritis in rats
